Target: T1, HarmOR11/Orco (Helicoverpa armigera, UniProt A0A7D5JUD6)
T1 construct: full-length HarmOR11 and HarmOrco cloned from antennal cDNA into pT7Ts; cRNAs co-injected in Xenopus laevis oocytes; heteromeric channel, exact stoichiometry unknown (2:2 only modelled); with Odorant receptor coreceptor
T1 sequence (A0A7D5JUD6 1-431): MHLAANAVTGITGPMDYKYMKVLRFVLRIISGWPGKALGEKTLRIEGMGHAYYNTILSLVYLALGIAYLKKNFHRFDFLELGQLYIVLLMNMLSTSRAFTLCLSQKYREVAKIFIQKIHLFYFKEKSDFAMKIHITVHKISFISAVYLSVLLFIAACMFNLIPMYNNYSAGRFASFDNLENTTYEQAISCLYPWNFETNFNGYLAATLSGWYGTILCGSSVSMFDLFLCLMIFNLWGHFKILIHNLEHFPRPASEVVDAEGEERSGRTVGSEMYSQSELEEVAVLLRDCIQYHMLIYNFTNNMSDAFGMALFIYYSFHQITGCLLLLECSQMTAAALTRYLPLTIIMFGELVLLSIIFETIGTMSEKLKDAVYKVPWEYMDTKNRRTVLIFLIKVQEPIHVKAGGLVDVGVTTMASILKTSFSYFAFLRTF
T1 sequence (E5KJL4 1-473 partner): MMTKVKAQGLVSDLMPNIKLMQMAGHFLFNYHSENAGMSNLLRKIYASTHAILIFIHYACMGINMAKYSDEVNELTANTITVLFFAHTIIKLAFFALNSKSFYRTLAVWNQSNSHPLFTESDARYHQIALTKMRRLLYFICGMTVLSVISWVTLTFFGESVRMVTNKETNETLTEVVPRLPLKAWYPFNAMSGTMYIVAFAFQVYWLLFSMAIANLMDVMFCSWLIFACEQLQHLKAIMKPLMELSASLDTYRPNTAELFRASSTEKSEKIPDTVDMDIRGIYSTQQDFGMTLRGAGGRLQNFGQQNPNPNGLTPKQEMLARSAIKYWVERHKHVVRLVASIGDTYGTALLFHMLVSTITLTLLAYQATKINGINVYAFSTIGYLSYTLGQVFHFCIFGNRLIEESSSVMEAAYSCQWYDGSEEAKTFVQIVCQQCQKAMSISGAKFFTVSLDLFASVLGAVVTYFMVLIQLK
Test: two-electrode voltage clamp of Xenopus oocytes co-expressing HarmOR11/Orco
Type: cell-based
Conditions: agonist; holding potential -80 mV; Ringer's buffer pH 7.6; from DMSO stock; unit printed as mol (concentration meant)

EC50: 1.637e-05 mol
Compound: CC/C=C\C/C=C\C/C=C\CCCCCCCCCCC [3Z,6Z,9Z-21:H, 3Z,6Z,9Z-heneicosatriene]
